In PMC12645191, “Dicarboxylate and dicarboxylic acid appended supramolecular self-associating amphiphiles as antimicrobial agents against high priority bacterial pathogens” (Organic & Biomolecular Chemistry, 2025):
In brackets after ≈: the same amount, converted by molar mass. Several values for one entry are separate records, joined by “and”; a condition that tells them apart may be missing. Equal entries are not always repeated. Where two headings read alike, the source gives them in different places.

Key:
S. aureus ATCC 9144 = test: inhibition of bacterial growth, OD600 after 20 h; format: cell-based, Staphylococcus aureus; settings: SSA 5.0 mM, 2.5% ethanol, negative = enhanced growth; for inhibition at 5000 µM: Staphylococcus aureus, ATCC9144, 20 h, read-out: Percentage inhibition of bacterial growth, ATCC 9144 (S. aureus)
Method: With the self-associative properties of 1–10 established, the antimicrobial activity of these SSAs were determined against a panel of clinically relevant, high-priority pathogens including: P. aeruginosa PAO1; Klebsiella pneumonia (K. pneumoniae) M6; E. coli NCTC 12923; Acinetobacter baumannii (A. baumannii) ATCC 17978; S. aureus ATCC 9144; Enterococcus faecalis (E. faecalis) NCTC 775; and Enterococcus faecium (E. faecium) NCTC 12204. […] However, it should be noted that the SSA stock solution was prepared in a H2O 5% EtOH solution, to ensure that the SSA aggregates formed were in line with those characterised within the scope of the SSA self-association studies.
Section 3: Biological methods
These methods were taken directly from UK Health and Security Office (UKHSA) standard […]
Preparation of Luria Broth media (LB): Yeast extract (5.0 g), tryptone (10.0 g) and sodium chloride (10.0 g) were dissolved in dH₂O (1.0 L) then divided into bottles and autoclaved.
Preparation of Luria Broth (LB) agar plates: Agar (6.0 g) was added to LB (400 mL) and autoclaved. Once cool, the LB agar was poured into sterile petri dishes under sterile conditions and allowed to set. LB plates were stored at 4 °C until use.
Preparation of bacterial plates: Sterile LB agar plates were streaked using streaked using the desired bacteria i) Pseudomonas aeruginosa (P.aeruginosa) PAO1, ii) Klebsiella pneumoniae (K. pneumoniae) M6 iii) E. coli NCTC 12923 and iv) Acinetobacter baumannii (A. baumannii) ATCC 17978 and Gram-positive i) Staphylococcus aureus (S. aureus) ATCC 9144 ii) Enterococcus faecalis (E. faecalis) NCTC 775 and iii) Enterococcus faecium (E. faecium ) NCTC 12204, then incubated at 37 °C overnight.
Preparation of Inoculum: An initial culture was made up by inoculating LB media (5 mL) with a single colony of bacteria under sterile conditions and incubated at 37 °C with shaking overnight. The following day, overnight bacterial cultures were subcultured into fresh LB medium to a starting OD600 of 0.01.
Preparation of 96 well microplate for MIC50: The 1:100 cell suspension (150 µL) was dispensed into individual wells under sterile conditions. SSAs (30 µL) were added to the wells to equal a total volume of 180 µL in the wells. Six repeats of each concentration for each SSA were created each plate. The plates were sealed using parafilm, then incubated at 37 °C in a microplate reader for 20 hours. OD600 endpoint data was used to generate growth curves. […]

[1] = tensiometry: critical aggregate concentration (CAC) and surface tension; format: physicochemical; settings: for Surface tension at CAC: H2O/5.0 % EtOH
Method: As the (Q) ^1H NMR spectroscopy experiments conducted at 5.6 mM in a D2O 5.0% EtOH solution confirmed the presence of higher-order self-associated structures with solid-like properties, concentration dependent surface tension measurements, obtained through tensiometry, were used to calculate critical aggregate concentration (CAC). Here the CAC is defined as the point at which an increase in SSA concentration no longer decreases surface tension but instead results in the formation of higher-order self-associated structures.

[2] = kinetic solubility determination in PBS pH 7.4; settings: PBS, pH 7.4, aqueous buffer, kinetic from dmso stock, Solubility in PBS pH 7.4, kinetic; upper limit set at 300 µM
[3] = metabolic stability in liver microsomes; format: in vitro ADME, mouse; settings: for Hepatic Extraction Ratio (ER) / Predicted Hepatic CLH / Remaining percentage / CLint scaled at 1 µM: mouse; for microsomal CLint at 1 µM / half-life at 1 µM: mouse liver microsomes, 0.5 mg protein/mL; for microsomal CLint at 1 µM: read-out: in vitro CLint; for half-life at 1 µM: read-out: in vitro t1/2; for CLint scaled at 1 µM: liver microsomes, read-out: Scale-up CLint
Method: (§1) Metabolic stability was assessed in mouse and rat liver microsomes. Microsomes are subcellular fractions of hepatocytes and contain CYP450s, the predominant enzymes involved in first-pass metabolism.[66] […] A plasma protein binding assay was performed to assess the extent of compound binding to plasma proteins. This is key as only unbound compound is free to distribute and exert a pharmacological effect. […] To assess the potential for this sub-class of SSAs to be developed as drugs for oral administration, Caco-2 permeability assays were also performed, as a cellular model indicative of human intestinal permeability.
(§2) Section 3: Biological methods […]
(§3) In vitro Absorption, Distribution and Metabolism
(§4) These studies were performed by Contract Research Organisation (CRO) Pharmaron. The methodology provided within the ESI is published within the express permission of this organisation. The percentage of a compound recovered during the analysis process should be 100 %; any deviation from this value indicates experimental limitations such as unintended potential non-specific binding events to experimental equipment, solubility issues, etc.
(§5) Metabolic Stability in Rat and Mouse Liver Microsomes:
(§6) The metabolic stability of compounds at a concentration of 1 µM, in rat and mouse liver […]
(§7) / mL) in the presence and absence of cofactor (NADPH) at 37 °C. Aliquots of each incubation were removed at 0.5, 5, 15, 30 and 60 minutes. The reaction was stopped by the addition of 5 volumes of cold acetonitrile containing analytical internal standard (IS).
(§8) Samples were then centrifuged at 3 °C, 220 g for 40 minutes to remove cell debris. The supernatant was aliquoted and added to ultra-pure H2O in a 1:1 ratio in preparation for LC- […]
(§9) Samples were analysed using a Shimadzu liquid chromatography system coupled to a Triple Quad 6500+ mass spectrometry (AB Inc.) Separation of compounds was achieved using an HSS T3 column (50 x 2.1 mm) at a temperature of 40 °C and a binary mobile phase gradient […]
(§10) at a flow rate of 0.7 mL/min. […]
(§11) acid in water) and 5 % solvent B (0.1 % formic acid in acetonitrile). […]
(§12) solvent B at 0.7 minutes, held for 0.5 minutes and then immedi ately returned to initial conditions. Sample analysis was by electrospray ionisation. […]

[4] = metabolic stability in liver microsomes; format: in vitro ADME, rat; settings: for Hepatic Extraction Ratio (ER) / Predicted Hepatic CLH / Remaining percentage / CLint scaled at 1 µM: rat; for microsomal CLint at 1 µM / half-life at 1 µM: rat liver microsomes, 0.5 mg protein/mL; for microsomal CLint at 1 µM: read-out: in vitro CLint; for half-life at 1 µM: read-out: in vitro t1/2; for CLint scaled at 1 µM: liver microsomes, read-out: Scale-up CLint
Method: as §1, §2, §3, §4, §5, §6, §7, §8, §9, §10, §11, §12

Structure (SMILES)	inhibition at 5000 µM (S. aureus ATCC 9144)	solubility [2]	Hepatic Extraction Ratio (ER) [3]	Predicted Hepatic CLH [3]	microsomal CLint at 1 µM [3]	half-life at 1 µM [3]	Remaining percentage ([3]; +Cofactors, 0.5 min)	Remaining percentage ([3]; +Cofactors, 5 min)	Remaining percentage ([3]; +Cofactors, 15 min)	Remaining percentage ([3]; +Cofactors, 30 min)	Remaining percentage ([3]; +Cofactors, 60 min)	Remaining percentage ([3]; -Cofactors, 0.5 min)	Remaining percentage ([3]; -Cofactors, 60 min)	CLint scaled at 1 µM [3]	Hepatic Extraction Ratio (ER) [4]	Predicted Hepatic CLH [4]	microsomal CLint at 1 µM [4]	half-life at 1 µM [4]	Remaining percentage ([4]; +Cofactors, 0.5 min)	Remaining percentage ([4]; +Cofactors, 5 min)	also measured
O=C(O)CC[C@@H](NC(=O)Nc1ccc(C(F)(F)F)cc1)C(=O)O [SSA 3]	99.1%	310 µM (≈ 104 µg/mL)	< 0.26	< 23.07 mL/min/kg	< 7.5 µL/min/mg	> 3.08 h	100.00%	99.16%	100.05%	98.24%	98.27%	100.00%	93.98%	< 31 mL/min/kg	< 0.21	< 14.42 mL/min/kg	< 7.5 µL/min/mg	> 3.08 h	100.00%	95.07%	Percentage inhibition of bacterial growth, ATCC 9144 (S. aureus) (S. aureus ATCC 9144; listed as 3): 99%; CAC ([1]; H2O 5.0% EtOH, 298 K, listed as 3): 17.46 mM and 20 mM; Surface tension at CAC ([1]; listed as 3): 38.73 mN/m; Remaining percentage ([4]; +Cofactors, 15 min): 99.07%; Remaining percentage ([4]; +Cofactors, 30 min): 97.86%; Remaining percentage ([4]; +Cofactors, 60 min): 98.31%; Remaining percentage ([4]; -Cofactors, 0.5 min): 100.00%; Remaining percentage ([4]; -Cofactors, 60 min): 104.13%; CLint scaled at 1 µM [4]: < 18.3 mL/min/kg
O=C(O)CC[C@H](NC(=O)Nc1ccc(C(F)(F)F)cc1)C(=O)O [SSA 1]	98.7%	303 µM (≈ 101 µg/mL)	< 0.26	< 23.07 mL/min/kg	< 7.5 µL/min/mg	> 3.08 h	100.00%	100.09%	98.69%	98.11%	105.07%	100.00%	103.10%	< 31 mL/min/kg	< 0.21	< 14.42 mL/min/kg	< 7.5 µL/min/mg	> 3.08 h	100.00%	96.56%	Percentage inhibition of bacterial growth, ATCC 9144 (S. aureus) (S. aureus ATCC 9144): 99%; CAC ([1]; H2O 5.0% EtOH, 298 K): 19.23 mM and 19 mM; ST at CAC ([1]; H2O 5.0% EtOH, 298 K): 39 mN m^−1; Surface tension at CAC [1]: 38.90 mN/m; Remaining percentage ([4]; +Cofactors, 15 min): 99.83%; Remaining percentage ([4]; +Cofactors, 30 min): 96.48%; Remaining percentage ([4]; +Cofactors, 60 min): 95.66%; Remaining percentage ([4]; -Cofactors, 0.5 min): 100.00%; Remaining percentage ([4]; -Cofactors, 60 min): 102.14%; CLint scaled at 1 µM [4]: < 18.3 mL/min/kg
